According to patent US20200172530A1, “Small Molecule Sensitization of BAX Activation for Induction of Cell Death” (Dana-Farber Cancer Institute, Inc., priority 2017, published 2020):

Key:
[1] = NMR-based detection of small molecule aggregators; type: physicochemical; settings: 20 mM potassium phosphate buffer, pH 6.2, 10% D2O
Experimental: To detect line broadening, standard ^1H-NMR spectra were acquired. T2 decay curves were generated by measuring the CPMG NMR spectra of the molecules, performed as described above. The number of echo cycles corresponds to the decay time. The intensity of the aromatic peaks at the indicated decay times were measured and normalized to a maximum intensity of 1 at the 10 ms decay time. The curves were fitted to a one phase decay model using Prism software (Graphpad). Excitation sculpting was used for solvent suppression. Samples for both analyses were prepared in 20 mM potassium phosphate buffer, pH 6.2, 10% (v/v) D2O. Results of these measurements are described in FIGS. 12-13.

Dynamic light scattering = type: physicochemical; settings: 20 mM potassium phosphate buffer, pH 6.2
Experimental: Samples were measured at room temperature on a DynaPro-99 instrument with a 90° detector angle using a 10 second acquisition time per measurement. Compounds were diluted from a 100 mM stock in 20 mM potassium phosphate buffer, pH 6.2 with 1% DMSO final concentration.

BAX = target: T1, BAX (Homo sapiens, UniProt Q07812); test: Liposomal release assay (ANTS/DPX); type: biochemical
T1 construct: Recombinant, full-length BAX was expressed in BL21 (DE3) E. coli using the pTYB1 vector; made in house; host or cells: E. coli BL21 (DE3)
T1 sequence (Q07812 whole entry): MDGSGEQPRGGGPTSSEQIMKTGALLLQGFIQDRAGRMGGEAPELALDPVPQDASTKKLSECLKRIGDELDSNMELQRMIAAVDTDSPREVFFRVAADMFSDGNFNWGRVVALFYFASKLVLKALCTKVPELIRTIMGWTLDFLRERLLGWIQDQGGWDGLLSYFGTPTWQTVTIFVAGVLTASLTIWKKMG
Experimental: Briefly, a lipid mixture containing a 48:28:10:10:4 molar ratio of phosphatidylcholine, phosphatidylethanolamine, phosphatidylinositol, dioleoyl phosphatidylserine, and tetraoleolyl cardiolipin (Avanti Polar Lipids) was generated in chloroform. Lipid films were formed by evaporation of solvent, initially under nitrogen gas and then by overnight vacuum, followed by storage at −80° C. under nitrogen. […] Liposomes were formed by 5 freeze/thaw cycles followed by extrusion through a 100 nm polycarbonate membrane and purified using a Sepharose CL-2B size exclusion column. […] ANTS/DPX release was monitored over time at room temperature in a spectrofluorometer (Tecan Infinite M1000) using an excitation wavelength of 355 nm, an emission wavelength of 540 nm, and a bandwidth of 20 nm. Maximal release was determined by the addition of Triton X-100 to a final concentration of 0.2% (v/v). Percent release was calculated according to Equation 1 shown below, where F is the observed release, and F0 and F100 are baseline and maximal fluorescence, respectively.
First, baseline fluorescence with liposomes and compound alone was read, followed by the addition of BAX to evaluate for direct activation; then, BIM SAHBA2 was added to this mixture and the effect of the combination monitored, and compared with the triggering activity of BIM SAHBA2 and BAX in the absence of compound.

[2] = target: T2, recombinant, full length BAX (Homo sapiens, UniProt Q07812); test: Fluorescence polarization assay (direct and competitive); type: binding; settings: FITC-peptide 25 nM, BAX 250 nM
T2 construct: made in house; host or cells: E. coli BL21 (DE3)
T2 sequence (Q07812 whole entry): as above
Experimental: FITC-peptide (25 nM) was incubated with a serial dilution of recombinant, full length BAX in binding buffer (20 mM Potassium phosphate, pH 6.2). For competitive FP, FITC-peptide (25 nM) was mixed with a fixed concentration of BAX (250 nM) and incubated with a serial dilution of acetylated peptide or a compound described herein. Fluorescence polarization was measured at equilibrium using a SpectraMax M5 microplate reader. Nonlinear regression analysis of dose-response curves was performed using Prism software 7 (GraphPad).

Molecule | T2 decay (aggregation) [1] | light scattering (aggregation in solution) (Dynamic light scattering) | line broadening in 1H-NMR spectrum (aggregation) [1] | maximal BAX-mediated liposomal release (BAX; BIM SAHBA2 alone with BAX) [%] | direct BAX activation in liposomal release (BAX; single agent with BAX) | competition with FITC-BIM SAHBA2 for BAX interaction [2]
Nc1ccc(Nc2ccccc2)cc1 [4-ADPA] | rapid T2 decay | dose-dependent increase in light scattering | – | – | – | –
Oc1ccc(Oc2ccccc2)cc1 [BIF-44] | does not exhibit rapid or dose dependent decrease in T2 decay | does not aggregate in solution | does not exhibit line broadening | – | – | –
O=C1C(I)=CC(=C(c2cc(I)c(O)c(I)c2)c2ccccc2C(=O)O)C=C1I [I4PTH] | – | dose-dependent increase in light scattering | – | – | – | –
BIM SAHBA2: stapled BIM BH3 helix (aa 145-164), Ac-EIWIAQELRXIGDXFNAYYA-CONH2, X=stapling amino acid; direct BAX activator positive control | – | – | – | 50 | induced time-responsive liposomal release | dose-responsively competed
